Ten compounds from patent publication US20240246950A1, “Anilino-Pyrazole Derivatives, Compositions and Methods Thereof” (Ensem Therapeutics, priority 2022, published 2024) can be followed below.

pIC50: −log10 of the molar value.

Test [1] concerns the target T1, CDK2/CycE1 (Homo sapiens, UniProt P24941). The experiment in a line: In vitro kinase Caliper assay CDK2/CycE1. In kind it is biochemical. Conditions: enzyme 3 nM, 28° C. 30 min, read-out: CDK2 cyclinE1 activity assay: IC50. As for the experimental part:
(§1) In Vitro Kinase Caliper Assays: CDK2/CycA2, CDK2/CycE1, CDK1/cyclinB and GSK3β
(§2) 1× Kinase buffer (50 mM HEPES pH 7.5, 10 mM MgCl2, 2 mM DTT and 0.01% Brij-35) The test compounds were prepared as 10 mM stock solution in 100% DMSO. The stock solution was then serially diluted 3-fold in 100% DMSO to 10 concentrations. 200 nL of each diluted compound solution was transferred to 384-well plate in duplicate. To each well, 10 μL of enzyme solution containing either CDK2/CycA2, CDK2/CycE1, CDK1/cyclinB, or GSK3β (final concentrations 10 nM, 3 nM, 1 nM, 1 nM respectively) in 1× Kinase buffer and the mix incubated at room temperature for 10 min. To initiate each reaction, 10 μL of peptide solution containing FAM-labelled peptide with final concentration at 3000 nM (FAM-P18 (5-FAM-QSPKKG-CONH2) for CDK2/CycA2, CDK2/CycE1, CDK1/cyclinB proteins, FAM-P15 (5-FAM-KRREILSRRPpSYR—COOH) for GSK30 protein) and ATP (final concentrations 30 μM, 77 μM or 20 μM, respectively) in 1× Kinase buffer was added to each well. All reactions were incubated at 28° C. for 30 min and then terminated by the addition of 30 μL stop buffer (100 mM HEPES pH 7.5, 50 mM EDTA, 0.2% Coating Reagent #3 and 0.015% Brij-35). All samples were then subjected to analysis using Caliper EZ Reader to read conversion values. IC50 values were then calculated by plotting dose-response curves and then using the XLfit application in Excel software.

The next test concerns OVCAR3. Put plainly: Cell proliferation (CyQUANT) OVCAR3. In kind it is cell-based. Conditions: Homo sapiens, OVCAR-3, 168 h, OVCAR3, 7 days, read-out: Anti-proliferation assay: IC50 (nM) [Cell Line: OVCAR3]. In outline: (§3)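 Cells were seeded at 2500, 1000 or 3000 cells/well, cultured overnight, then exposed to 3-fold compound dilutions for 7 days (final DMSO at most 0.01%). CyQUANT fluorescence was read at Ex/Em 480/520 nm; % inhibition computed relative to same-plate DMSO wells.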

Test [2] addresses T2, CDK1/cyclinB (Homo sapiens, UniProt P06493). The experiment in a line: In vitro kinase Caliper assay CDK1/cyclinB. In kind it is biochemical. To be noted: enzyme 1 nM, 28° C. 30 min. As for the experimental part: as §1, §2
Test [3] concerns the target T3, CDK2/CycA2 (Homo sapiens, UniProt P24941). Put plainly: In vitro kinase Caliper assay CDK2/CycA2. In kind it is biochemical. Conditions: enzyme 10 nM, 28° C. 30 min, read-out: CDK2 cyclinA2 activity assay: IC50. As for the experimental part: as §1, §2
The next test concerns TOV21G. Put plainly: Cell proliferation (CyQUANT) TOV21G. To be noted: Homo sapiens, 168 h, 7 days, read-out: Anti-proliferation assay: IC50 (nM) [Cell Line: TOV21G]. The test is classed as cell-based. The procedure, abridged:
as §3

Test [4] has as its target T4, GSK3β (Homo sapiens, UniProt P49841). Put plainly: In vitro kinase Caliper assay GSK3β. In kind it is biochemical. To be noted: enzyme 1 nM, 28° C. 30 min. As for the experimental part: as §1, §2
Test [5] has as its target T3, CDK2/CycA2. Put plainly: In vitro kinase TR-FRET assay CDK2/CycA2. In kind it is biochemical. To be noted: enzyme 3 nM, ATP 27 μM, read-out: CDK2 cyclinA2 activity assay: IC50. The procedure, abridged:
(§4)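 Enzymes at 3 nM (CDK2/CycA2), 0.6 nM (CDK2/CycE1), 0.3 nM (CDK1/cyclinB), 0.6 nM (GSK3β) with ATP at 27, 82, 56, 7.6 μM respectively, 50 nM ULight-4E-BP1 peptide, HEPES pH7.5; 10-point 3-fold dilutions. 1 h reaction at room temperature; Eu-anti-phospho-4E-BP1 TR-FRET (665/615 nm) read; IC50 from dose-response curves.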

The target in test [6] is T2, CDK1/cyclinB. The experiment in a line: In vitro kinase TR-FRET assay CDK1/cyclinB. To be noted: enzyme 0.3 nM, ATP 56 μM. In kind it is biochemical. In outline:
as §4

Test [7] addresses T4, GSK3β. The experiment in a line: In vitro kinase TR-FRET assay GSK3β. The test is classed as biochemical. To be noted: enzyme 0.6 nM, ATP 7.6 μM. The procedure, abridged:
as §4

In test [8] the target is T1, CDK2/CycE1. Put plainly: In vitro kinase TR-FRET assay CDK2/CycE1. Conditions: enzyme 0.6 nM, ATP 82 μM, read-out: CDK2 cyclinE1 activity assay: IC50. In kind it is biochemical. In outline:
as §4

T2 sequence (P06493 whole entry): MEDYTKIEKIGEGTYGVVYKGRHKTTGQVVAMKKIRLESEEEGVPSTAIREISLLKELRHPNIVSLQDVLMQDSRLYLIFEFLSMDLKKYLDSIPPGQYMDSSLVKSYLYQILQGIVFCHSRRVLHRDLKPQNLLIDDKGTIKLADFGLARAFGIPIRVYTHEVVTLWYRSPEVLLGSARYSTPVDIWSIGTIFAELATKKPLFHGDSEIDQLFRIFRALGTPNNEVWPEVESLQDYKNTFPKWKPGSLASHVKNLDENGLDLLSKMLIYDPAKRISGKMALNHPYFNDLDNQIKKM
T2 sequence (P14635 whole entry partner): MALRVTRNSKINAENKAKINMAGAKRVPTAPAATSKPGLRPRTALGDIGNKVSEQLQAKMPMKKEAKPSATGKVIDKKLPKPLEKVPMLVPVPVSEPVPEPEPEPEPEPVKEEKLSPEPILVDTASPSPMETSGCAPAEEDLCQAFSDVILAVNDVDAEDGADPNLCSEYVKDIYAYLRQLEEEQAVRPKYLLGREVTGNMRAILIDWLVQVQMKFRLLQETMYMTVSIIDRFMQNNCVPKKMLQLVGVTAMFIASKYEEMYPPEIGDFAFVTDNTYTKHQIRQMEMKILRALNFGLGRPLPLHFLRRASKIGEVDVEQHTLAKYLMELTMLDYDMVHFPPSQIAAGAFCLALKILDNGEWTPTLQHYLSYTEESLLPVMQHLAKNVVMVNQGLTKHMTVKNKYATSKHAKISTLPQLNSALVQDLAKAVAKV
T4 sequence (P49841 whole entry, species assumed): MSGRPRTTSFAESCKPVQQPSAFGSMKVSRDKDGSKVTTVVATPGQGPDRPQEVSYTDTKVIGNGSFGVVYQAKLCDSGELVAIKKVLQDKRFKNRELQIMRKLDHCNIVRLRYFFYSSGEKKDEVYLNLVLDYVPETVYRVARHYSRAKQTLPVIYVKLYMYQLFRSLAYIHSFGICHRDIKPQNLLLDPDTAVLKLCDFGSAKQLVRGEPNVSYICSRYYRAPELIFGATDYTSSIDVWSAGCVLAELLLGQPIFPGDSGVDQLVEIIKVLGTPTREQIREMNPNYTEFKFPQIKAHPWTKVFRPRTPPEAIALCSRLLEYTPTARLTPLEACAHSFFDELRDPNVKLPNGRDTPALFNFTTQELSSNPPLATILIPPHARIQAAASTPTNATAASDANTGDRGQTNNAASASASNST

As to `CC(C)NC(=O)O[C@@H]1CC[C@H](c2cc(Nc3ccc4c(c3)CCNS4(=O)=O)n[nH]2)C1` [Example 2, (1R,3S)-3-(3-((1,1-dioxido-3,4-dihydro-2H-benzo[e][1,2]thiazin-6-yl)amino)-1H-pyrazol-5-yl)cyclopentyl isopropylcarbamate], the negative-log IC50 (pIC50) at CDK2/CycE1 [1] is above 7.30; against CDK1/cyclinB [2], above 7.30; at CDK2/CycA2 [3], above 7.30; on GSK3β [4], 6.00 to 6.30. The IC50 in the test with OVCAR3 was at most 500 nM; in the test with TOV21G it was at least 1000 nM.
In the case of `CC(C)NC(=O)O[C@@H]1CC[C@H](c2cc(Nc3ccc4c(=O)[nH]n(C)c4c3)n[nH]2)C1` [Example 1, (1R,3S)-3-(3-((1-methyl-3-oxo-2,3-dihydro-1H-indazol-6-yl)amino)-1H-pyrazol-5-yl)cyclopentyl isopropylcarbamate], the pIC50 is above 7.30 at CDK2/CycE1 [1], 6.30 to 7.30 against CDK1/cyclinB [2], above 7.30 at CDK2/CycA2 [3] and 6.30 to 7.30 on GSK3β [4]. Besides, the IC50 in the test on OVCAR3 and in the test with TOV21G was at least 1000 nM in each case.
Consider `CC(C)NC(=O)O[C@@H]1CC[C@H](c2cc(Nc3ccc4c(c3)CNS4(=O)=O)n[nH]2)C1` [Example 3, (1R,3S)-3-(3-((1,1-dioxido-2,3-dihydrobenzo[d]isothiazol-5-yl)amino)-1H-pyrazol-5-yl)cyclopentyl isopropylcarbamate], for which the negative-log IC50 (pIC50) at CDK2/CycE1 [1] was above 7.30; against CDK1/cyclinB [2] it was above 7.30; on CDK2/CycA2 [3], above 7.30; on GSK3β [4], 6.00 to 6.30. Besides, the IC50 in the test on OVCAR3 is at most 500 nM; in the test on TOV21G it was at least 1000 nM.
As to `CC(C)NC(=O)O[C@@H]1CC[C@H](c2cc(Nc3ccc4c(c3)CS(=O)(=O)N4C)n[nH]2)C1` [Example 42, (1R,3S)-3-{5-[(1-methyl-2,2-dioxo-1,3-dihydro-2%6-benzo[c][1,2]thiazol-5-yl)amino]-2H-pyrazol-3-yl}cyclopentyl (prop-2-ylamino)methanoate], the IC50 in the test with OVCAR3 and in the test on TOV21G was at most 500 nM throughout. In addition, the pIC50 at CDK2/CycA2 [5] is above 7.30; at CDK1/cyclinB [6], 6.30 to 7.30; against GSK3β [7] it was 6.00 to 6.30; on CDK2/CycE1 [8], above 7.30.
As for `CC(C)NC(=O)O[C@@H]1CC[C@H](c2cc(Nc3ccc4c(c3)S(=O)(=O)CC4)n[nH]2)C1` [Example 19, (1R,3S)-3-(3-((1,1-dioxido-2,3-dihydrobenzo[b]thiophen-6-yl)amino)-1H-pyrazol-5-yl)cyclopentyl isopropylcarbamate], the IC50 in the test with OVCAR3 and in the test with TOV21G was at most 500 nM each time. For the same compound, the negative-log IC50 (pIC50) on CDK2/CycA2 [5] was above 7.30; on CDK1/cyclinB [6], 6.30 to 7.30; against GSK3β [7] it was 6.30 to 7.30; on CDK2/CycE1 [8], above 7.30.
As to `CC(C)NC(=O)O[C@@H]1CC[C@H](c2cc(Nc3ccc4c(c3)CS(=O)(=O)C4)n[nH]2)C1` [Example 22, (1R,3S)-3-(3-((2,2-dioxido-1,3-dihydrobenzo[c]thiophen-5-yl)amino)-1H-pyrazol-5-yl)cyclopentyl isopropylcarbamate], the IC50 with OVCAR3 and in the test with TOV21G was at most 500 nM in each case. Besides, the negative logarithm of the IC50 (pIC50) on CDK2/CycA2 [5] is above 7.30; at CDK1/cyclinB [6] it was above 7.30; at GSK3β [7], 6.00 to 6.30; on CDK2/CycE1 [8], above 7.30.
Turning to `CC(C)NC(=O)O[C@@H]1CC[C@H](c2cc(Nc3nccc4c3CCS4(=O)=O)n[nH]2)C1` [Example 57, (1R,3S)-3-{5-[(1,1-dioxo-2,3-dihydro-1λ^6-thieno[3,2-c]pyridin-4-yl)amino]-2H-pyrazol-3-yl}cyclopentyl (prop-2-ylamino)methanoate], the values for the IC50 in the test on OVCAR3 and in the test on TOV21G were at most 500 nM and 500 to 1000 nM, respectively. Also, the pIC50 on CDK2/CycA2 [5] was above 7.30; on CDK1/cyclinB [6] it was 6.30 to 7.30; on GSK3β [7], 6.30 to 7.30; at CDK2/CycE1 [8], above 7.30.
`CC(C)NC(=O)O[C@@H]1CC[C@H](c2cc(Nc3ccc4c(c3)NS(=O)(=O)C4)n[nH]2)C1` [Example 38, (1R,3S)-3-(3-((2,2-dioxido-1,3-dihydrobenzo[c]isothiazol-6-yl)amino)-1H-pyrazol-5-yl)cyclopentyl isopropylcarbamate]: the IC50 was at most 500 nM with OVCAR3 and at least 1000 nM in the test with TOV21G. Also, the negative logarithm of the IC50 (pIC50) is above 7.30 at CDK2/CycA2 [5], above 7.30 at CDK1/cyclinB [6], below 6.00 against GSK3β [7] and above 7.30 on CDK2/CycE1 [8].
Regarding `CC(C)NC(=O)O[C@@H]1CC[C@H](c2cc(Nc3cccc4c3CNS4(=O)=O)n[nH]2)C1` [Example 46, (1R,3S)-3-(3-((1,1-dioxido-2,3-dihydrobenzo[d]isothiazol-4-yl)amino)-1H-pyrazol-5-yl)cyclopentyl isopropylcarbamate], the results for the IC50 in the test on OVCAR3 and in the test with TOV21G were at most 500 nM and 500 to 1000 nM, respectively. Moreover, the negative-log IC50 (pIC50) is above 7.30 at CDK2/CycA2 [5], 6.30 to 7.30 against CDK1/cyclinB [6], 6.30 to 7.30 against GSK3β [7] and above 7.30 at CDK2/CycE1 [8].
Consider `CC(C)NC(=O)O[C@@H]1CC[C@H](c2cc(Nc3ccc4c(c3)CS(=O)(=O)N4)n[nH]2)C1` [Example 45, (1R,3S)-3-{5-[(2,2-dioxo-1,3-dihydro-2λ6-benzo[c][1,2]thiazol-5-yl)amino]-2H-pyrazol-3-yl}cyclopentyl (prop-2-ylamino)methanoate], for which the IC50 in the test on OVCAR3 and with TOV21G was at least 1000 nM each time. Further, the pIC50 on CDK2/CycA2 [5] was above 7.30; at CDK1/cyclinB [6], above 7.30; at GSK3β [7] it was below 6.00; on CDK2/CycE1 [8], above 7.30.
